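Five compound concentrations were applied to cells in 96-well plates for 48 hours; endpoints were derived by simple linear interpolation of the resulting dose-response curve. Definition used: TGI = concentration required for complete inhibition of growth.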
Key:
Experiment in all cases: inhibition of tumour cell growth, NCI panel, 48 h
[1] = system: SN12C renal
[2] = system: PC-3 prostate
[3] = system: HCC-2998 colon
[4] = system: SF-295 CNS
[5] = system: OVCAR-8 ovarian
[6] = system: T-47D breast
[7] = system: SNB-75 CNS
[8] = system: MDA-MB-435
[9] = system: SK-MEL-28 melanoma
[10] = system: RPMI-8226 leukemia
[11] = system: HOP-92 NSCLC
[12] = system: MDA-MB-231 breast
[13] = system: K-562 leukemia
[14] = system: SF-268 CNS
[15] = system: CCRF-CEM leukemia
[16] = system: BT-549 breast
[17] = system: OVCAR-5 ovarian
[18] = system: LOX IMVI melanoma
[19] = system: SK-MEL-2 melanoma
[20] = system: OVCAR-3 ovarian
[21] = system: A549 NSCLC
[22] = system: UO-31 renal
[23] = system: SNB-19 CNS
[24] = system: NCI-H460 lung
[25] = system: MOLT-4 leukemia
[26] = system: 786-0 renal
[27] = system: HL-60(TB) leukemia
[28] = system: MCF7 breast
[29] = system: SF-539 CNS
[30] = system: NCI/ADR-RES ovarian
[31] = system: CAKI-1 renal
[32] = system: NCI-H226 lung
[33] = system: MALME-3M melanoma
[34] = system: NCI-H522 lung
[35] = system: OVCAR-4 ovarian
[36] = system: SW-620 colon
[37] = system: HOP-62 NSCLC
[38] = system: U251 CNS
[39] = system: SK-MEL-5 melanoma
[40] = system: A498 renal
[41] = system: IGROV1 ovarian
[42] = system: HS 578T breast
[43] = system: TK-10 renal
[44] = system: NCI-H23 lung
[45] = system: UACC-257 melanoma
[46] = system: UACC-62 melanoma
[47] = system: MDA-N
[48] = system: COLO 205 colon
[49] = system: ACHN renal
[50] = system: M14 melanoma
[51] = system: HT29 colon
[52] = system: DU-145 prostate
[53] = system: SK-OV-3 ovarian
[54] = system: KM12 colon
[55] = system: HCT-15 colon
[56] = system: RXF 393 renal
[57] = system: HCT-116 colon
[58] = system: EKVX NSCLC
[59] = system: SR leukemia

## O=C(O)c1ccc(Nc2ccnc3cc(Cl)ccc23)cc1O
[1]
  TGI: > 100 µM
[2]
  TGI: > 100 µM
[3]
  TGI: > 100 µM
[4]
  TGI: > 100 µM
[5]
  TGI: > 100 µM
[6]
  TGI: > 100 µM
[7]
  TGI: > 100 µM
[8]
  TGI: > 100 µM
[9]
  TGI: > 100 µM
[10]
  TGI: > 100 µM
[11]
  TGI: > 100 µM
[12]
  TGI: > 100 µM
[13]
  TGI: > 100 µM
[14]
  TGI: > 100 µM
[15]
  TGI: > 100 µM
[16]
  TGI: > 100 µM
[17]
  TGI: > 100 µM
[18]
  TGI: > 100 µM
[19]
  TGI: > 100 µM
[20]
  TGI: > 100 µM
[21]
  TGI: > 100 µM
[22]
  TGI: > 100 µM
[23]
  TGI: > 100 µM
[24]
  TGI: > 100 µM
[25]
  TGI: > 100 µM
[26]
  TGI: > 100 µM
[27]
  TGI: > 100 µM
[28]
  TGI: > 100 µM
[29]
  TGI: 88.7 µM
[30]
  TGI: > 100 µM
[31]
  TGI: > 100 µM
[32]
  TGI: > 100 µM
[33]
  TGI: > 100 µM
[34]
  TGI: > 100 µM
[35]
  TGI: > 100 µM
[36]
  TGI: > 100 µM
[37]
  TGI: > 100 µM
[38]
  TGI: > 100 µM
[39]
  TGI: > 100 µM
[40]
  TGI: > 100 µM
[41]
  TGI: > 100 µM
[42]
  TGI: > 100 µM
[43]
  TGI: > 100 µM
[44]
  TGI: > 100 µM
[45]
  TGI: > 100 µM
[46]
  TGI: > 100 µM
[47]
  TGI: > 100 µM
[48]
  TGI: > 100 µM
[49]
  TGI: > 100 µM
[50]
  TGI: > 100 µM
[51]
  TGI: > 100 µM
[52]
  TGI: > 100 µM
[53]
  TGI: > 100 µM
[54]
  TGI: > 100 µM
[55]
  TGI: > 100 µM
[56]
  TGI: > 100 µM
[57]
  TGI: > 100 µM
[58]
  TGI: > 100 µM

## CC(C)(C)CN1[C@@H]2CCCC[C@H]2N(CC(C)(C)C)P1(=O)Cc1ccccc1
[1]
  TGI: 30.1 µM
[2]
  TGI: 19.4 µM
[3]
  TGI: 21.2 µM
[4]
  TGI: 23.1 µM
[5]
  TGI: 27.7 µM
[6]
  TGI: 26.6 µM
[7]
  TGI: 24.1 µM
[8]
  TGI: 32.7 µM
[9]
  TGI: 31.7 µM
[12]
  TGI: 24.9 µM
[13]
  TGI: 28.2 µM
[14]
  TGI: 28.7 µM
[15]
  TGI: 31.3 µM
[16]
  TGI: 31.2 µM
[17]
  TGI: 25.4 µM
[18]
  TGI: 29.6 µM
[19]
  TGI: 29.9 µM
[20]
  TGI: 23.5 µM
[21]
  TGI: 24.1 µM
[22]
  TGI: 26.1 µM
[23]
  TGI: 28.6 µM
[24]
  TGI: 28.1 µM
[25]
  TGI: 27.5 µM
[26]
  TGI: 29.9 µM
[27]
  TGI: 26.4 µM
[28]
  TGI: 26.2 µM
[29]
  TGI: 31.6 µM
[30]
  TGI: 27.1 µM
[31]
  TGI: 27.3 µM
[59]
  TGI: 29.7 µM
[32]
  TGI: 29.7 µM
[33]
  TGI: 26.3 µM
[34]
  TGI: 20.6 µM
[35]
  TGI: 24.9 µM
[36]
  TGI: 30.7 µM
[37]
  TGI: 31.3 µM
[38]
  TGI: 26.5 µM
[39]
  TGI: 24.8 µM
[41]
  TGI: 23.3 µM
[42]
  TGI: 31 µM
[43]
  TGI: 25 µM
[44]
  TGI: 26.2 µM
[45]
  TGI: 25.6 µM
[46]
  TGI: 22.5 µM
[47]
  TGI: 28.4 µM
[48]
  TGI: 22.2 µM
[49]
  TGI: 28.5 µM
[50]
  TGI: 26.3 µM
[51]
  TGI: 21.7 µM
[52]
  TGI: 30 µM
[53]
  TGI: 29.2 µM
[54]
  TGI: 34.3 µM
[55]
  TGI: 25 µM
[56]
  TGI: 24.1 µM
[57]
  TGI: 22.6 µM
[58]
  TGI: 27.4 µM

## CC1(C)SC2C(C(=O)O)N=C(Cc3ccccc3)N2C1C(=O)O (stereo unspecified)
[1]
  TGI: > 100 µM
[2]
  TGI: > 100 µM
[3]
  TGI: 56.9 µM
[4]
  TGI: > 100 µM
[5]
  TGI: > 100 µM
[6]
  TGI: 73.7 µM
[7]
  TGI: 49.2 µM
[8]
  TGI: > 100 µM
[9]
  TGI: > 100 µM
[10]
  TGI: > 100 µM
[11]
  TGI: > 100 µM
[12]
  TGI: > 100 µM
[13]
  TGI: > 100 µM
[14]
  TGI: 98.1 µM
[16]
  TGI: > 100 µM
[17]
  TGI: > 100 µM
[18]
  TGI: 60.5 µM
[19]
  TGI: > 100 µM
[20]
  TGI: > 100 µM
[21]
  TGI: > 100 µM
[22]
  TGI: 39.5 µM
[23]
  TGI: > 100 µM
[24]
  TGI: > 100 µM
[25]
  TGI: > 100 µM
[26]
  TGI: 42.1 µM
[28]
  TGI: > 100 µM
[29]
  TGI: 57.3 µM
[30]
  TGI: > 100 µM
[31]
  TGI: > 100 µM
[59]
  TGI: > 100 µM
[32]
  TGI: 51.3 µM
[33]
  TGI: > 100 µM
[34]
  TGI: > 100 µM
[35]
  TGI: > 100 µM
[36]
  TGI: > 100 µM
[37]
  TGI: > 100 µM
[38]
  TGI: > 100 µM
[39]
  TGI: > 100 µM
[40]
  TGI: > 100 µM
[41]
  TGI: > 100 µM
[42]
  TGI: 95.7 µM
[43]
  TGI: 40.5 µM
[44]
  TGI: > 100 µM
[45]
  TGI: 49.2 µM
[46]
  TGI: > 100 µM
[47]
  TGI: > 100 µM
[48]
  TGI: > 100 µM
[49]
  TGI: > 100 µM
[50]
  TGI: > 100 µM
[51]
  TGI: 29 µM
[52]
  TGI: > 100 µM
[53]
  TGI: > 100 µM
[54]
  TGI: > 100 µM
[55]
  TGI: > 100 µM
[56]
  TGI: > 100 µM
[57]
  TGI: > 100 µM
[58]
  TGI: 29.7 µM

— PubChem BioAssay (NCI)
